Measured values as given in patent publication US11999727B2 (Tango Therapeutics, Inc., priority 2020, dated 2024).

Legend:
PRMT5 [1] = target: T1, PRMT5 (Homo sapiens, UniProt O14744); test: PRMT5 biochemical IC50 assay with SAM as cofactor; conditions: PRMT5, SAM as cofactor; read-out: SAM IC50
T1 construct: purchased Viva (custom protein)

PRMT5 [2] = target: T1, PRMT5; test: PRMT5 biochemical IC50 assay with no cofactor; conditions: PRMT5, no cofactor; read-out: No Cofactor/rel IC50
Text: Table 1 indicates IC50 values (μM) against PRMT5 for exemplary compounds in the presence of SAM as cofactor, with no cofactor, and with MTA as cofactor, respectively (columns 4-6). […] Ki values can be calculated from the IC50 values as described in the Examples section. As detailed in the Examples section, for the assay performed in the presence of SAM, IC50=Ki×1.5 (Ki=IC50/1.5).

PRMT5 [3] = target: T1, PRMT5; test: PRMT5 biochemical IC50 assay with MTA as cofactor; conditions: PRMT5, MTA as cofactor; read-out: MTA IC50
[4] = tested on: HAP1 MTAP-intact cell line; test: SDMA in-cell western assay, HAP1 MTAP-intact; format: cell-based; conditions: Homo sapiens, HAP1, SDMA in-cell western, HAP1 MTAP-intact; read-out: MTAP HAP1 intact IC50
How it was run: (§1)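 MTAP-null vs endogenous-MTAP HAP1 isogenic cells; in-cell western SDMA readout; IC50 per line.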

[5] = tested on: HAP1 MTAP-deleted cell line; test: SDMA in-cell western assay, HAP1 MTAP-deleted; format: cell-based; conditions: for IC50: Homo sapiens, HAP1, SDMA in-cell western, HAP1 MTAP-deleted, read-out: HAP1 MTAP deleted IC50; for MTAP intact/deleted ratio: IC50 ratio HAP1 MTAP-intact vs HAP1 MTAP-deleted, SDMA in-cell western
How it was run: as §1

[6] = tested on: HAP1 MTAP-deleted cell line; test: Viability assay, MTAP-deleted cell line; format: cell-based; conditions: Homo sapiens, HAP1, viability assay, MTAP-deleted cell line; read-out: HAP1 MTAP deleted viability
Text: Table 1 additionally indicates IC50 values in a viability assay for the MTAP-deleted cell line (column 10), indicating the effect of treatment with compound on cell survival.

T1 sequence (O14744 whole entry): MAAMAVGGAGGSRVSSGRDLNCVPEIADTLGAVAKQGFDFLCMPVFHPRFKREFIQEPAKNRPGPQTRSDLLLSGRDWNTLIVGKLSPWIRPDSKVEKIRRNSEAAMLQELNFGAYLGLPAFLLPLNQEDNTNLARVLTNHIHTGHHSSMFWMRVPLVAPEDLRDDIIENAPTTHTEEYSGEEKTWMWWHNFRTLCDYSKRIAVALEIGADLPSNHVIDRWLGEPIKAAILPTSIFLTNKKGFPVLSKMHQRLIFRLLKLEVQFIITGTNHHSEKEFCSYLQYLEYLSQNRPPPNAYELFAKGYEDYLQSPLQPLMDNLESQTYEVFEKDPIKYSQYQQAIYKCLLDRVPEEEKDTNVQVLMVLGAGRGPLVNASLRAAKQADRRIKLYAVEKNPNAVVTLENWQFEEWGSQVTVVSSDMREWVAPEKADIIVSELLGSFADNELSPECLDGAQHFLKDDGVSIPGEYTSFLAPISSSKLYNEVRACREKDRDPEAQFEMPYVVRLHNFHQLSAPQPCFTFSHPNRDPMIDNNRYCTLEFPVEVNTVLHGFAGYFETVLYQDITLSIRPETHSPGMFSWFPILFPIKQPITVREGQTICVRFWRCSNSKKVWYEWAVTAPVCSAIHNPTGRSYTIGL
T1 sequence (Q9BQA1 whole entry partner): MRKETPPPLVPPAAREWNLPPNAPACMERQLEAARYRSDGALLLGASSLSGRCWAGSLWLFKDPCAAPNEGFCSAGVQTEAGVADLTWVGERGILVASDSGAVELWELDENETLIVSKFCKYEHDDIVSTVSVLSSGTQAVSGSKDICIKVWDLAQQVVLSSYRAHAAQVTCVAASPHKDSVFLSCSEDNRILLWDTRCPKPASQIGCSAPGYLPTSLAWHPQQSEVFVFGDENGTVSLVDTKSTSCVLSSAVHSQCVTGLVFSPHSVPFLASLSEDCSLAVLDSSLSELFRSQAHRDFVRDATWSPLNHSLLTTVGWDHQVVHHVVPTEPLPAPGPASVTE

CCc1cc(NC(=O)C(=O)N2C[C@@H](C)CC[C@@H]2c2ccc3sc(C4CCN(C)C(=O)C4)nc3c2)cnc1N (mixture of isomers) [Compound 1110, N-(6-amino-5-ethylpyridin-3-yl)-2-((2R,5S)-5-methyl-2-(2-(1-methyl-2-oxopiperidin-4-yl)benzo[d]thiazol-5-yl)piperidin-1-yl)-2-oxoacetamide]
IC50 (PRMT5 [1]): 0.05 to 0.5 µM
IC50 (PRMT5 [2]): < 0.05 µM
IC50 (PRMT5 [3]): < 0.05 µM
IC50 [4]: 0.1 to 1 µM
IC50 [5]: < 0.1 µM
MTAP intact/deleted ratio [5]: A (an IC50 ratio greater than or equal to 10 fold)
IC50 [6]: < 1 µM

Cc1cc(NC(=O)C(=O)N2C[C@@H](C)CC[C@@H]2c2ccc3sc([C@H]4CCN(C)C(C)(C)C4)nc3c2)cnc1C (racemic) [Compound 1113, N-(5,6-dimethyl-3-pyridyl)-2-oxo-2-[(2R,5S)-5-methyl-2-[2-[(4S)-1,2,2-trimethyl-4-piperidyl]-1,3-benzothiazol-5-yl]-1-piperidyl]acetamide]
IC50 (PRMT5 [1]): < 0.05 µM
IC50 (PRMT5 [2]): < 0.05 µM
IC50 (PRMT5 [3]): < 0.05 µM
IC50 [4]: 0.1 to 1 µM
IC50 [5]: < 0.1 µM
MTAP intact/deleted ratio [5]: A (an IC50 ratio greater than or equal to 10 fold)
IC50 [6]: < 1 µM

COc1ncc(NC(=O)C(=O)N2C[C@@H](C)CC[C@@H]2c2ccc3nn(C4CCN(C)CC4)cc3c2)cc1C(N)=O (racemic) [Compound 1115, 2-Methoxy-5-[[2-oxo-2-[rac-(2R,5S)-5-methyl-2-[2-(1-methyl-4-piperidyl)indazol-5-yl]-1-piperidyl]acetyl]amino]pyridine-3-carboxamide]
IC50 (PRMT5 [1]): < 0.05 µM
IC50 (PRMT5 [2]): < 0.05 µM
IC50 (PRMT5 [3]): < 0.05 µM
IC50 [4]: 0.1 to 1 µM
IC50 [5]: < 0.1 µM
MTAP intact/deleted ratio [5]: A (an IC50 ratio greater than or equal to 10 fold)
IC50 [6]: < 1 µM

COc1ncc(NC(=O)C(=O)N2C[C@@H](C)CC[C@@H]2c2ccc3sc([C@@H]4CCN(C)C[C@H]4C)nc3c2)cc1C(N)=O (racemic) [Compound 1127, 2-methoxy-5-[[2-oxo-2-[rac-(2R,5S)-5-methyl-2-[2-[rac-(3S,4R)-1,3-dimethyl-4-piperidyl]-1,3-benzothiazol-5-yl]-1-piperidyl]acetyl]amino]pyridine-3-carboxamide]
IC50 (PRMT5 [1]): < 0.05 µM
IC50 (PRMT5 [2]): < 0.05 µM
IC50 (PRMT5 [3]): < 0.05 µM
IC50 [4]: < 0.1 µM
IC50 [5]: < 0.1 µM
MTAP intact/deleted ratio [5]: A (an IC50 ratio greater than or equal to 10 fold)
IC50 [6]: < 1 µM

CCc1cc(NC(=O)C(=O)N2CC(C)CCC2c2ccc3sc(C4CCN(C)CC4C)nc3c2)cnc1N (racemic) [Compound 1131, N-(6-amino-5-ethyl-3-pyridyl)-2-oxo-2-[rac-(2R,5S)-5-methyl-2-[2-[rac-(3R,4R)-1,3-dimethyl-4-piperidyl]-1,3-benzothiazol-5-yl]-1-piperidyl]acetamide]
IC50 (PRMT5 [1]): < 0.05 µM
IC50 (PRMT5 [2]): < 0.05 µM
IC50 (PRMT5 [3]): < 0.05 µM
IC50 [4]: < 0.1 µM
IC50 [5]: < 0.1 µM
MTAP intact/deleted ratio [5]: B (an IC50 ratio greater than or equal to 3 fold but lower than 10 fold)
IC50 [6]: < 1 µM

CCc1cc(NC(=O)C(=O)N2C[C@@H](C)[C@@H](OC)C[C@@H]2c2cccc(OCCN(C)C)c2)cnc1N (racemic) [Compound 1139, N-(6-amino-5-ethyl-3-pyridyl)-2-oxo-2-[rac-(2R,4S,5R)-2-[3-[2-(dimethylamino)ethoxy]phenyl]-4-methoxy-5-methyl-1-piperidyl]acetamide]
IC50 (PRMT5 [1]): 0.05 to 0.5 µM
IC50 (PRMT5 [2]): 0.05 to 0.5 µM
IC50 (PRMT5 [3]): 0.05 to 0.5 µM
IC50 [4]: < 0.1 µM
IC50 [5]: < 0.1 µM
MTAP intact/deleted ratio [5]: B (an IC50 ratio greater than or equal to 3 fold but lower than 10 fold)
IC50 [6]: < 1 µM

CCc1cc(NC(=O)C(=O)N2C[C@@H](C)CC[C@@H]2c2ccc3nn(C4CC(C)(C)N(C)C(C)(C)C4)cc3c2)cnc1N (racemic) [Compound 1140, N-(6-Amino-5-ethyl-3-pyridyl)-2-oxo-2-[rac-(2R,5S)-5-methyl-2-[2-(1,2,2,6,6-pentamethyl-4-piperidyl)indazol-5-yl]-1-piperidyl]acetamide]
IC50 (PRMT5 [1]): < 0.05 µM
IC50 (PRMT5 [2]): < 0.05 µM
IC50 (PRMT5 [3]): < 0.05 µM
IC50 [4]: < 0.1 µM
IC50 [5]: < 0.1 µM
MTAP intact/deleted ratio [5]: A (an IC50 ratio greater than or equal to 10 fold)
IC50 [6]: < 1 µM

COc1ncc(NC(=O)C(=O)N2C[C@@H](C)CC[C@@H]2c2ccc3nn([C@@H]4CCN(C)C4)cc3c2)cc1C(N)=O (racemic) [Compound 1141, 2-Methoxy-5-[[2-oxo-2-[rac-(2R,5S)-5-methyl-2-[2-[rac-(3R)-1-methylpyrrolidin-3-yl]indazol-5-yl]-1-piperidyl]acetyl]amino]pyridine-3-carboxamide]
IC50 (PRMT5 [1]): 0.05 to 0.5 µM
IC50 (PRMT5 [2]): < 0.05 µM
IC50 (PRMT5 [3]): < 0.05 µM
IC50 [4]: 0.1 to 1 µM
IC50 [5]: < 0.1 µM
MTAP intact/deleted ratio [5]: A (an IC50 ratio greater than or equal to 10 fold)
IC50 [6]: < 1 µM

Cc1cc(NC(=O)C(=O)N2C[C@H](C)CC[C@H]2c2ccc3scc(CCN(C)C)c3c2)cnc1N (racemic) [Compound 1142, N-(6-amino-5-methyl-3-pyridyl)-2-[(2S,5R)-2-[3-[2-(dimethylamino)ethyl]benzothiophen-5-yl]-5-methyl-1-piperidyl]-2-oxo-acetamide]
IC50 (PRMT5 [1]): 0.05 to 0.5 µM
IC50 (PRMT5 [2]): 0.05 to 0.5 µM
IC50 (PRMT5 [3]): < 0.05 µM
IC50 [4]: < 0.1 µM
IC50 [5]: < 0.1 µM
MTAP intact/deleted ratio [5]: B (an IC50 ratio greater than or equal to 3 fold but lower than 10 fold)
IC50 [6]: < 1 µM

Cc1cc(NC(=O)C(=O)N2C[C@H](C)CC[C@H]2c2cccc(C3CCN(C)CC3)c2)cnc1N (racemic) [Compound 1149, N-(6-amino-5-methylpyridin-3-yl)-2-(5-methyl-2-(3-(1-methylpiperidin-4-yl)phenyl)piperidin-1-yl)-2-oxoacetamide]
IC50 (PRMT5 [1]): 0.05 to 0.5 µM
IC50 (PRMT5 [2]): 0.05 to 0.5 µM
IC50 (PRMT5 [3]): < 0.05 µM
IC50 [4]: 0.1 to 1 µM
IC50 [5]: < 0.1 µM
MTAP intact/deleted ratio [5]: A (an IC50 ratio greater than or equal to 10 fold)
IC50 [6]: < 1 µM

CCc1cc(NC(=O)C(=O)N2C[C@@H](C)CC[C@@H]2c2ccc(N3CCN(C(C)C)CC3)c(C)c2)cnc1N (racemic) [Compound 1163, N-(6-Amino-5-ethyl-3-pyridyl)-2-oxo-2-[rac-(2R,5S)-2-[4-(4-isopropylpiperazin-1-yl)-3-methyl-phenyl]-5-methyl-1-piperidyl]acetamide]
IC50 (PRMT5 [1]): < 0.05 µM
IC50 (PRMT5 [2]): < 0.05 µM
IC50 (PRMT5 [3]): < 0.05 µM
IC50 [4]: 0.1 to 1 µM
IC50 [5]: < 0.1 µM
MTAP intact/deleted ratio [5]: A (an IC50 ratio greater than or equal to 10 fold)
IC50 [6]: < 1 µM

CCc1cc(NC(=O)C(=O)N2C[C@@H](C)CC[C@@H]2c2ccc(N3C[C@H]4CCN(C)C[C@H]4C3)cc2)cnc1N (racemic) [Compound 1167, N-(6-amino-5-ethyl-3-pyridyl)-2-oxo-2-[rac-(2R,5S)-5-methyl-2-[4-[rac-(3aS,7aS)-5-methyl-3,3a,4,6,7,7a-hexahydro-1H-pyrrolo[3,4-c]pyridin-2-yl]phenyl]-1-piperidyl]acetamide]
IC50 (PRMT5 [1]): < 0.05 µM
IC50 (PRMT5 [2]): < 0.05 µM
IC50 (PRMT5 [3]): < 0.05 µM
IC50 [4]: 0.1 to 1 µM
IC50 [5]: < 0.1 µM
MTAP intact/deleted ratio [5]: A (an IC50 ratio greater than or equal to 10 fold)
IC50 [6]: < 1 µM
